Experimental data: patent publication US8952024B2, “Herbicidal pyrimidone derivatives” (E I du Pont de Nemours and Company, priority 2009, dated 2015)

Legend:
Assay type in all cases: in vivo
[1] = tested on: johnsongrass (Sorghum halepense); assay: Test B pre-/postemergence plant response
Description: (§1) Seeds of plant species selected from blackgrass (Alopecurus myosuroides), downy bromegrass (Bromus tectorum), green foxtail (Setaria viridis), Italian ryegrass (Lolium multiflorum), wheat (Triticum aestivum), wild oat (Avena fatua), deadnettle (henbit deadnettle, Lamium amplexicaule), galium (catchweed bedstraw, Galium aparine), bermudagrass (Cynodon dactylon), Surinam grass (Brachiaria decumbens), cocklebur (Xanthium strumarium), corn (Zea mays), large crabgrass (Digitaria sanguinalis), woolly cupgrass (Eriochloa villosa), giant foxtail (Setaria faberii), goosegrass (Eleusine indica), johnsongrass (Sorghum halepense), kochia (Kochia scoparia), lambsquarters (Chenopodium album), morningglory (Ipomoea coccinea), nightshade (eastern black nightshade, Solanum ptycanthum), yellow nutsedge (Cyperus esculentus), pigweed (Amaranthus retroflexus), ragweed (common ragweed, Ambrosia elatior), Russian thistle (Salsola kali), soybean (Glycine max), sunflower (common oilseed sunflower, Helianthus annuus) and velvetleaf (Abutilon theophrasti) were planted into a blend of loam soil and sand and treated preemergence with test compounds formulated in a non-phytotoxic solvent mixture which included a surfactant.
(§2) At the same time, plants selected from these crop and weed species and also winter barley (Hordeum vulgare), canarygrass (Phalaris minor), chickweed (Stellaria media) and windgrass (Apera spica-venti) were planted in pots containing Redi-Earth® planting medium (Scotts Company, 14111 Scottslawn Road, Marysville, Ohio 43041) comprising spaghnum peat moss, vermiculite, wetting agent and starter nutrients and treated with postemergence applications of some of the test chemicals formulated in the same manner. Plants ranged in height from 2 to 18 cm (1- to 4-leaf stage) for postemergence treatments.
(§3) Treated plants and controls were maintained in a greenhouse for 13 to 15 days, after which time all treated plants were visually evaluated and compared to controls. Plant response ratings, summarized in Table B, are based on a scale of 0 to 100 where 0 is no effect and 100 is complete control. A dash (-) response means no test result.

[2] = tested on: pigweed (Amaranthus retroflexus); assay: Test B pre-/postemergence plant response
Description: as §1, §2, §3

[3] = tested on: ragweed (common ragweed, Ambrosia elatior); assay: Test B pre-/postemergence plant response
Description: as §1, §2, §3

[4] = tested on: goosegrass (Eleusine indica); assay: Test B pre-/postemergence plant response
Description: as §1, §2, §3

soybean (Glycine max) = assay: Test B pre-/postemergence plant response
Description: as §1, §2, §3

kochia (Kochia scoparia) = assay: Test B pre-/postemergence plant response
Description: as §1, §2, §3

[5] = tested on: wheat (Triticum aestivum); assay: Test B pre-/postemergence plant response
Description: as §1, §2, §3

wild oat (Avena fatua) = assay: Test B pre-/postemergence plant response
Description: as §1, §2, §3

[6] = tested on: velvetleaf (Abutilon theophrasti); assay: Test B pre-/postemergence plant response
Description: as §1, §2, §3

[7] = tested on: cocklebur (Xanthium strumarium); assay: Test B pre-/postemergence plant response
Description: as §1, §2, §3

[8] = tested on: canarygrass (Phalaris minor); assay: Test B postemergence plant response; conditions: Postemergence
How it was run: (§4)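 Plants at the 1- to 4-leaf stage (2 to 18 cm tall), grown in pots of peat moss/vermiculite medium with wetting agent and starter nutrients, received postemergence applications of test chemicals. After 13 to 15 days in a greenhouse, injury was rated visually against untreated controls on a 0 (no effect) to 100 (complete control) scale.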

[9] = tested on: windgrass (Apera spica-venti); assay: Test B postemergence plant response; conditions: Postemergence
How it was run: as §4

[10] = tested on: chickweed (Stellaria media); assay: Test B postemergence plant response; conditions: Postemergence
How it was run: as §4

[11] = 250 g ai/ha, Preemergence, 0 to 100 scale
[12] = Postemergence, 31 g ai/ha, scale 0 to 100 (0 no effect, 100 complete control)
[13] = Postemergence, 62 g ai/ha, scale 0 (no effect) to 100 (complete control), 13 to 15 days
[14] = Postemergence, 125 g ai/ha, visual rating after 13 to 15 days, scale 0 (no effect) to 100 (complete control)
[15] = Postemergence, 250 g ai/ha, scale 0 to 100
[16] = Preemergence, 31 g ai/ha, scale 0 to 100 (0 no effect, 100 complete control)
[17] = Preemergence, 62 g ai/ha, scale 0 to 100 (0 no effect, 100 complete control)
[18] = Preemergence, 125 g ai/ha, 0 to 100 scale
[19] = 31 g ai/ha, scale 0 to 100 (0 no effect, 100 complete control)
[20] = 62 g ai/ha, scale 0 (no effect) to 100 (complete control), 13 to 15 days
[21] = 125 g ai/ha, visual rating after 13 to 15 days, scale 0 (no effect) to 100 (complete control)

3-cyclohexyl-5-[(2-hydroxy-6-oxo-1-cyclohexen-1-yl)carbonyl]-2-phenyl-4(3H)-pyrimidinone [Compound 128]
Plant response rating, Johnsongrass [1, 11]: 98 | Plant response rating, Johnsongrass [1, 12]: 65 | Plant response rating, Johnsongrass [1, 13]: 70 | Plant response rating, Johnsongrass [1, 14]: 90 | Johnsongrass plant response rating [1, 15]: 98 | Plant response rating, Johnsongrass [1, 16]: 0 | Plant response rating, Johnsongrass [1, 17]: 55 | Johnsongrass plant response rating [1, 18]: 85 | Plant response rating, Pigweed [2, 11]: 100 | Plant response rating, Pigweed [2, 12]: 65 | Plant response rating, Pigweed [2, 13]: 80 | Plant response rating, Pigweed [2, 14]: 85 | Pigweed plant response rating [2, 15]: 98 | Plant response rating, Pigweed [2, 16]: 100 | Plant response rating, Pigweed [2, 17]: 100 | Pigweed plant response rating [2, 18]: 100 | Plant response rating, Ragweed [3, 11]: 100 | Plant response rating, Ragweed [3, 12]: 100 | Plant response rating, Ragweed [3, 13]: 100 | Plant response rating, Ragweed [3, 14]: 100 | Ragweed plant response rating [3, 15]: 100 | Plant response rating, Ragweed [3, 16]: 65 | Plant response rating, Ragweed [3, 17]: 100 | Ragweed plant response rating [3, 18]: 100 | Plant response rating, Goosegrass [4, 11]: 100 | Plant response rating, Goosegrass [4, 12]: 65 | Plant response rating, Goosegrass [4, 13]: 85 | Plant response rating, Goosegrass [4, 14]: 95 | Goosegrass plant response rating [4, 15]: 98 | Plant response rating, Goosegrass [4, 16]: 70 | Goosegrass plant response rating [4, 18]: 100 | Plant response rating, Soybean (soybean (Glycine max); [11]): 95 | Plant response rating, Soybean (soybean (Glycine max); [12]): 100 | Plant response rating, Soybean (soybean (Glycine max); [13]): 100 | Plant response rating, Soybean (soybean (Glycine max); [14]): 100 | Soybean plant response rating (soybean (Glycine max); [15]): 100 | Plant response rating, Soybean (soybean (Glycine max); [16]): 25 | Plant response rating, Soybean (soybean (Glycine max); [17]): 45 | Soybean plant response rating (soybean (Glycine max); [18]): 65 | Plant response rating, Kochia (kochia (Kochia scoparia); [11]): 100 | Plant response rating, Kochia (kochia (Kochia scoparia); [12]): 25 | Plant response rating, Kochia (kochia (Kochia scoparia); [13]): 25 | Plant response rating, Kochia (kochia (Kochia scoparia); [14]): 75 | Kochia plant response rating (kochia (Kochia scoparia); [15]): 98 | Plant response rating, Kochia (kochia (Kochia scoparia); [16]): 15 | Plant response rating, Kochia (kochia (Kochia scoparia); [17]): 100 | Kochia plant response rating (kochia (Kochia scoparia); [18]): 100 | Plant response rating, Wheat [5, 11]: 5 | Plant response rating, Wheat [5, 12]: 30 | Plant response rating, Wheat [5, 13]: 35 | Plant response rating, Wheat [5, 14]: 40 | Wheat plant response rating [5, 15]: 45 | Plant response rating, Wheat [5, 16]: 0 | Plant response rating, Wheat [5, 17]: 0 | Wheat plant response rating [5, 18]: 0 | Plant response rating, Oat, Wild (wild oat (Avena fatua); [11]): 40 | Plant response rating, Oat, Wild (wild oat (Avena fatua); [12]): 50 | Plant response rating, Oat, Wild (wild oat (Avena fatua); [13]): 50 | Plant response rating, Oat, Wild (wild oat (Avena fatua); [14]): 70 | Oat, Wild plant response rating (wild oat (Avena fatua); [15]): 70 | Plant response rating, Oat, Wild (wild oat (Avena fatua); [16]): 0 | Plant response rating, Oat, Wild (wild oat (Avena fatua); [17]): 0 | Oat, Wild plant response rating (wild oat (Avena fatua); [18]): 10 | Plant response rating, Velvetleaf [6, 11]: 100 | Plant response rating, Velvetleaf [6, 12]: 80 | Plant response rating, Velvetleaf [6, 13]: 95 | Plant response rating, Velvetleaf [6, 14]: 100 | Velvetleaf plant response rating [6, 15]: 100 | Plant response rating, Velvetleaf [6, 16]: 100 | Plant response rating, Velvetleaf [6, 17]: 100 | Velvetleaf plant response rating [6, 18]: 100 | Plant response rating, Cocklebur [7, 11]: 100 | Plant response rating, Cocklebur [7, 12]: 90 | Plant response rating, Cocklebur [7, 13]: 100 | Plant response rating, Cocklebur [7, 14]: 100 | Cocklebur plant response rating [7, 15]: 100 | Plant response rating, Cocklebur [7, 16]: 35 | Plant response rating, Cocklebur [7, 17]: 75 | Cocklebur plant response rating [7, 18]: 95 | Plant response rating, Canarygrass [8, 19]: 50 | Plant response rating, Canarygrass [8, 20]: 50 | Plant response rating, Canarygrass [8, 21]: 90 | Canarygrass plant response rating ([8]; 250 g ai/ha, scale 0 to 100): 90 | Plant response rating, Windgrass [9, 19]: 40 | Plant response rating, Windgrass [9, 20]: 85 | Plant response rating, Windgrass [9, 21]: 85 | Windgrass plant response rating ([9]; 250 g ai/ha, scale 0 to 100): 98 | Plant response rating, Chickweed [10, 19]: 80 | Plant response rating, Chickweed [10, 20]: 98 | Plant response rating, Chickweed [10, 21]: 100 | Chickweed plant response rating ([10]; 250 g ai/ha, scale 0 to 100): 100
